Test [1] deals with T1, Mu-type opioid receptor (Homo sapiens, UniProt P35372). The test can be described thus: Binding affinity to wild type MOR (unknown origin) expressed in CHO cells after 15 mins by Ca2+ mobilization assay. The test is classed as cell-based.
The nature of test [2]: Binding affinity to MOR Y210A mutant (unknown origin) expressed in CHO cells after 15 mins by Ca2+ mobilization assay. In kind it is cell-based, Homo sapiens.
Test [3] concerns the target T1, Mu-type opioid receptor.

The record followed here is ChEMBL document CHEMBL2440098, “Binding mode characterization of 6α- and 6β-N-heterocyclic substituted naltrexamine derivatives via docking in opioid receptor crystal structures and site-directed mutagenesis studies: application of the 'message-address' concept in development of mu opioid receptor selective antagonists” (Bioorg Med Chem, 2013).

T1 sequence (P35372 whole entry): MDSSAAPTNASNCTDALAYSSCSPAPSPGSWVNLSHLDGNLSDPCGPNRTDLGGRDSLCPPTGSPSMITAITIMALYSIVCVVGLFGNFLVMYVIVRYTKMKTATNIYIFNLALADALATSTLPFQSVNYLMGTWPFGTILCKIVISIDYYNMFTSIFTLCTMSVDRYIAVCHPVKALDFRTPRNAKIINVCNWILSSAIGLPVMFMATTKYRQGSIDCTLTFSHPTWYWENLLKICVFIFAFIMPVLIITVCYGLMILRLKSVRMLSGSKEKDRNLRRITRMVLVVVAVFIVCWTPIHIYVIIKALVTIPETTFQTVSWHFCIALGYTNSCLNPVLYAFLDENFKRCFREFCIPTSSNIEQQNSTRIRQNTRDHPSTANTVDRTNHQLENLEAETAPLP

Turning to `O=C(N[C@H]1CC[C@@]2(O)[C@H]3Cc4ccc(O)c5c4[C@@]2(CCN3CC2CC2)[C@H]1O5)c1cc2ccccc2cn1`, the results for the inhibition constant Ki (on Mu-type opioid receptor [1]; in test [2]) were 2.57 nM and 1.57 nM, respectively. Also, the half-maximal inhibitory concentration (IC50) is 3.31 nM in test [2] and 150 nM against Mu-type opioid receptor [3].
